According to patent US9480679B2, “Methods for treating malaria, tuberculosis and MAC diseases” (priority 2009, dated 2016):
Converted amounts (≈) assume the structure as drawn. “And” between values parts separate entries of the source, which are not always exact repeats. Equal entries are not always repeated. Where two headings read alike, the source gives them in different places. Marks after values point to notes of the source that are not given here.

Key:
M. avium = M. avium in vitro activity summary (MIC90, MBC); assay type: cell-based
[1] = system: clinical XDR strains of M. tuberculosis; assay: microbe, parasite or virus in culture; assay type: cell-based; details: Mycobacterium tuberculosis
[2] = system: MTb growing inside macrophages; assay: MTb inside infected macrophages, ATP readout; assay type: cell-based, M. tuberculosis; details: 1 μg/mL
[3] = system: replicating M. tuberculosis; assay: Aero RLU (Relative Light Units under aerobic conditions), replicating culture; assay type: cell-based; details: two experiments
[4] = system: non-replicating M. tuberculosis; assay: Low Oxygen Recovery Assay (LORA), non-replicating culture; assay type: cell-based; details: non-replicating culture (anaerobic); two experiments
P. falciparum NF54 [5] = assay: In vitro P. falciparum 72 hour assay (48+24); assay type: cell-based; details: Plasmodium falciparum, NF54
Method: EXAMPLE. In vitro and in vivo activity against different species of Plasmodium parasites. CEM-101 was tested against intra-erythrocytic forms of P. falciparum derived from asynchronous cultures of the strain […]. […] CEM-101 was followed for 120 h. CEM-101 has delayed activity when compared to other agents.
In vitro P. falciparum data for CEM-101 in the 72 h Assay (48+24)

P. falciparum NF54 [6] = assay: In vitro P. falciparum 120 hour assay (96+24); assay type: cell-based; details: Plasmodium falciparum, NF54
Method: EXAMPLE. In vitro and in vivo activity against different species of Plasmodium parasites. CEM-101 was tested against intra-erythrocytic forms of P. falciparum derived from asynchronous cultures of the strain […]. Parasite growth over 120 h was measured by the incorporation of radiolabelled [^3H]hypoxanthine (in hypoxanthine free culture medium) added after 96 h of drug incubation and 24 h prior to the termination of the test. CEM-101 was followed for 120 h. CEM-101 has delayed activity when compared to other agents.
In vitro P. falciparum data for CEM-101 in the 120 h Assay (96+24)

P. berghei = assay: Murine P. berghei model, oral 1x or 4x 100 mg/kg; assay type: in vivo; details: for Parasitized RBC in one drop of blood (made by microscope): individual animals
Method: EXAMPLE. CEM-101 activity in infected mice.
EXAMPLE. CEM-101 was tested in the murine P. berghei model as described by Vennerstrom et al. Nature 430(7002):900-904 (2004), the disclosure of which is incorporated herein by reference.

[7] = system: P. berghei ANKA sporozoites; assay: Causal prophylactic P. berghei sporozoite mouse model; assay type: in vivo
Method: EXAMPLE. CEM-101 activity as prophylactic. Mice inoculated IV with 0.1 ml, 100,000 P. berghei ANKA sporozoites from mosquitoes. Drug administered Day −1, 0 and 1, Once daily for 3 days.

P. berghei blood stages = assay: Blood stage treatment of P. berghei-infected mice, 3 day PO or SC dosing; assay type: in vivo; details: blood stage infections
[8] = Systemic toxicity in mice with SC or PO dosing; assay type: in vivo; details: SC or PO dosing as high as 160 mg/kg/d×3 days
Method: For blood stage infections, the minimum curative SC dose was 40 mg/kg/d×3 days, while 80 mg/kg/d×3 was the minimum active dose for PO route. In the P. berghei causal mouse model, CEM-101 was curative at 40 mg/kg/d×3 days with SC or PO dosing.

[9] = system: P. falciparum lines Dd2 and 7G8 and azithromycin-resistant lines; assay: Fidock lab 96 hours assay on P. falciparum lines; assay type: cell-based
Excerpt: EXAMPLE. CEM101 is active when tested against Azi resistant strain (Fidock).

[10] = assay type: in vitro ADME; details: 24 h
Method: EXAMPLE. Intracellular activity of CEM-101. […] After 24 hours, the intracellular concentration of CEM-101 was more than 2-fold higher than any of azithromycin, clarithromycin, and telithromycin, in decreasing order of ability for intracellular accumulation. CEM-101 intracellular accumulation was dose dependent.

[11] = system: luciferase expressing P. berghei liver stage parasites; assay: Liver stage activity by in vivo imaging; details: mice, PO dosing at 40 mg/kg/d×3 days
Method: Efficacy was measured by number of mice with delayed parasitemia and mice that were malaria free at day 31. Antimalarial liver stage activity was assessed in mice infected with luciferase expressing P. berghei parasites using an in vivo imaging system.

Compound: CC[C@H]1OC(=O)[C@@](C)(F)C(=O)[C@H](C)[C@@H](O[C@@H]2O[C@H](C)C[C@H](N(C)C)[C@H]2O)[C@](C)(OC)C[C@@H](C)C(=O)[C@H](C)[C@H]2N(CCCCn3cc(-c4cccc(N)c4)nn3)C(=O)O[C@]12C [CEM-101, solithromycin]
- MBC (M. avium; Mycobacterium avium, all strains tested, read-out: MBC): 2 µg/mL (≈ 2.37 µM)
- MIC (M. avium; Mycobacterium avium, susceptible phenotype, N=24, read-out: MIC): 1 µg/mL (≈ 1.18 µM)
- MBC (range) (M. avium; N=30): 2 (2) μg/mL
- MIC90 (range) (M. avium; N=30): 1 (1) μg/mL
- MBC (M. avium; resistant phenotype, MBCs calculated for 4 of the resistant strains): 2^a μg/mL
- MIC (M. avium; resistant phenotype, N=6): 1 µg/mL (≈ 1.18 µM)
- MBC (M. avium; susceptible phenotype, N=24): 2 µg/mL (≈ 2.37 µM)
- MIC ([1]; 168 h, strain OB005, 1 week): 3.12 µg/mL (≈ 3.7 µM)
- MIC ([1]; 168 h, strain OB031, 1 week): 0.049 µg/mL (≈ 0.058 µM)
- MIC ([1]; 168 h, strain OB076a, 1 week): 0.049 µg/mL (≈ 0.058 µM)
- MIC ([1]; 168 h, strain OB076b, 1 week): 0.049 µg/mL (≈ 0.058 µM)
- MIC ([1]; 168 h, strain OB082, 1 week): 0.049 µg/mL (≈ 0.058 µM)
- MIC ([1]; 336 h, strain OB005, 2 weeks): 12.5 µg/mL (≈ 14.8 µM)
- MIC ([1]; 336 h, strain OB019, 2 weeks): 1.56 µg/mL (≈ 1.85 µM)
- MIC ([1]; 336 h, strain OB031, 2 weeks): 0.78 to 1.56 µg/mL (≈ 0.923 to 1.85 µM)
- MIC ([1]; 336 h, strain OB062, 2 weeks): 0.39 to 0.78 µg/mL (≈ 0.462 to 0.923 µM)
- MIC ([1]; 336 h, strain OB076a, 2 weeks): 0.098 µg/mL (≈ 0.116 µM)
- MIC ([1]; 336 h, strain OB076b, 2 weeks): 0.049 µg/mL (≈ 0.058 µM)
- MIC ([1]; 336 h, strain OB081, 2 weeks): 12.5 µg/mL (≈ 14.8 µM)
- MIC ([1]; 336 h, strain OB082, 2 weeks): 0.098 µg/mL (≈ 0.116 µM)
- MIC ([1]; strain OB031, after a week (as the cell number increased)): 0.78 to 1.56 µg/mL (≈ 0.923 to 1.85 µM)
- MIC ([1]; strain OB031, initially): 0.049 µg/mL (≈ 0.058 µM)
- decrease in ATP of MTb released from infected treated cells [2]: 10 fold
- Aero RLU [3]: 7.19 µM and 6.95 µM
- LORA [4]: 10.43 µM and 7.55 µM
- IC50 (P. falciparum NF54 [5]; 72 h assay (48+24), read-out: IC50 NF54 TEST 1): 0.919 µg/mL (≈ 1.09 µM)
- IC50 (P. falciparum NF54 [5]; 72 h assay (48+24), read-out: IC50 NF54 TEST 2): 1.54 µg/mL (≈ 1.82 µM)
- IC50 (P. falciparum NF54 [5]; 72 h assay (48+24), read-out: IC50 NF54 TEST 3): 1.49 µg/mL (≈ 1.76 µM)
- IC50 (P. falciparum NF54 [5]; 72 h assay (48+24), read-out: IC50 NF54 TEST 4): 1.26 µg/mL (≈ 1.49 µM)
- IC50 (P. falciparum NF54 [5]; 72 hour assay (48+24), read-out: IC50 NF54 Test 1): 0.919 µg/mL (≈ 1.09 µM)
- IC50 (P. falciparum NF54 [5]; 72 hour assay (48+24), read-out: IC50 NF54 Test 2): 1.54 µg/mL (≈ 1.82 µM)
- IC50 (P. falciparum NF54 [5]; 72 hour assay (48+24), read-out: IC50 NF54 Test 3): 1.49 µg/mL (≈ 1.76 µM)
- IC50 (P. falciparum NF54 [5]; 72 hour assay (48+24), read-out: IC50 NF54 Test 4): 1.26 µg/mL (≈ 1.49 µM)
- IC50 (P. falciparum NF54 [6]; 120 h assay (96+24), read-out: IC50 NF54): 0.0024 µg/mL (≈ 0.00284 µM)
- IC50 (P. falciparum NF54 [6]; 120 hour assay (96+24), read-out: IC50 NF54 Test 1): < 0.156 µg/mL
- IC50 (P. falciparum NF54 [6]; 120 hour assay (96+24), read-out: IC50 NF54 Test 2): < 0.015 µg/mL
- IC50 (P. falciparum NF54 [6]; 120 hour assay (96+24), read-out: IC50 NF54 Test 3): 0.0024 µg/mL (≈ 0.00284 µM)
- outcome in murine malarial infection model (P. berghei; mice): curative
- Activity (%) (P. berghei; mice, 1 × 100 mg/kg oral, DMSO): 80.05%
- Survival (P. berghei; mice, 1 × 100 mg/kg oral, DMSO): 15.7 days
- Activity (%) (P. berghei; mice, 1 × 100 mg/kg oral, HPMC): 81.45%
- Survival (P. berghei; mice, 1 × 100 mg/kg oral, HPMC): 12.7 days
- Activity (%) (P. berghei; mice, 4 × 100 mg/kg oral, DMSO): 99.79%
- Cure (%) (P. berghei; mice, 4 × 100 mg/kg oral, DMSO): 100%
- Survival (P. berghei; mice, 4 × 100 mg/kg oral, DMSO, survivors sacrificed on Day 31): 30.0 days
- Activity (%) (P. berghei; mice, 4 × 100 mg/kg oral, HPMC): 99.79%
- Cure (%) (P. berghei; mice, 4 × 100 mg/kg oral, HPMC): 100%
- Survival (P. berghei; mice, 4 × 100 mg/kg oral, HPMC, survivors sacrificed on Day 31): 30.0 days
- blood from treated animals parasite free or not (P. berghei; mice, 4× 100 mg/kg p.o.): parasite free
- Visual Observation (parasites in blood) (P. berghei; mice, 4× 100 mg/kg p.o., DMSO): neg
- Parasitized RBC in one drop of blood (made by microscope) (P. berghei; mice, 4× 100 mg/kg p.o., DMSO): 0
- Visual Observation (parasites in blood) (P. berghei; mice, 4× 100 mg/kg p.o., HPMC): neg
- Parasitized RBC in one drop of blood (made by microscope) (P. berghei; mice, 4× 100 mg/kg p.o., HPMC): 0
- outcome of treatment (P. berghei; mice, P. berghei strain ANKA, 4×100 mg/kg, cure = survival on Day 30 with no detectable parasites): cure
- activity compared with Artesunate in the mouse model (P. berghei; murine P. berghei model (Vennerstrom et al.)): equivalent activity to Artesunate
- mice remaining parasite free ([7]; 20 mg/kg/d×3 days): 3/5
- outcome in the P. berghei causal mouse model ([7]; 40 mg/kg/d×3 days with SC or PO dosing): curative
- prophylactic activity ([7]; causal mouse malaria models, PO dosing at 40 mg/kg/d×3 days): 100%
- blood stage infection after prophylactic dosing ([7]; mice dosed as low as 40 mg/kg/d×3 days): no blood stage infection was detected
- Activity ([7]; mice, PO, dose 80, once daily Day -1, 0 and 1, (3 mice)): Complete curative
- Activity ([7]; mice, PO, dose 120, once daily Day -1, 0 and 1, (3 mice)): Complete curative
- Activity ([7]; mice, PO, dose 160, once daily Day -1, 0 and 1): Complete curative
- Activity ([7]; mice, SC, dose 40, once daily Day -1, 0 and 1): Complete curative
- Activity ([7]; mice, SC, dose 80, once daily Day -1, 0 and 1): Complete curative
- Activity ([7]; mice, SC, dose 120, once daily Day -1, 0 and 1): Complete curative
- Activity ([7]; mice, SC, dose 160, once daily Day -1, 0 and 1): Complete curative
- minimum active dose ([7]; mice, causal prophylactic model): 20 mg/kg/d×3 days
- minimum active dose for PO route (P. berghei blood stages; PO): 80 mg/kg/d×3
- minimum curative SC dose (P. berghei blood stages; SC): 40 mg/kg/d×3 days
- systemic toxicity [8]: No systemic toxicity
- IC50 ([9]; Plasmodium falciparum, 96 h, line 7G8 (multidrug resistant), 96 hours, read-out: Mean IC50): 18.5 nM
- IC50 ([9]; Plasmodium falciparum, 96 h, line AZR 7G8-R1, 96 hours, read-out: Mean IC50): 80.2 nM
- IC50 ([9]; Plasmodium falciparum, 96 h, line AZR Dd2-R2, 96 hours, runs 1-3, read-out: IC50): 73.2 nM
- IC50 ([9]; Plasmodium falciparum, 96 h, line AZR Dd2-R2, 96 hours, read-out: Mean IC50): 69.1 nM
- IC50 ([9]; Plasmodium falciparum, 96 h, line Dd2 (multidrug resistant), 96 hours, read-out: Mean IC50): 38.6 nM
- IC50 ([9]; line AZR Dd2-R2, 96 hours, runs 1-3, read-out: IC50): 64.5 nM and 69.7 nM
- intracellular concentration relative to azithromycin, clarithromycin and telithromycin [10]: more than 2 fold
- antimalarial activity against liver stage parasites by in vivo imaging [11]: No demonstrable antimalarial activity
